Results from patent publication US20230414560A1, “COMPOSITIONS AND METHODS FOR TREATING ECZEMA” (General Nutraceutical Technology LLC, priority 2022, published 2023).
Values after ≈ are worked out from the molar mass of the structure shown. Like-named read-outs stand apart in the source and are kept apart here.

Columns and labels:
[1] = cited from earlier work
TNF-α [2] = assay: TNF-α production by LPS-stimulated RAW 264.7 cells (ELISA); type: cell-based, murine
Description: (§1) Human U266 myeloma cells were cultured in complete media containing RPMI-1640 medium with 10% fetal bovine serum (FBS), 0.5% penicillin-streptomycin, 1×10^−5 mol/L of 0-mercaptoethanol, and 1 mmol/L of sodium pyruvate at 37° C. in an incubator with 5% CO2. U266 cells were cultured at initial 2×10^5 cell/mL with SZT-I or active compounds at different concentration. Then the supernatants were collected after 6 days. The level of IgE was. measured by an enzyme-linked immunosorbent assay (ELISA) kit according to the manufacturer's instructions. RAW 264.7 murine macrophages (5×10^5 cell/mL) were cultured in DMEM medium supplemented with 10% FBS, and 0.5% penicillin-streptomycin at 37° C. under 5% CO2. SZT-I or active compounds at different concentrations and LPS (0.5 μg/mL) added to cells. Supernatants were harvested after 24 h and analyzed by ELISA for TNF-α (Mabtech, In vitro studies-Cell viability Inc, Cincinnati, Ohio). Eotaxin inhibitory assays were conducted by using human fetal lung fibroblast (HFL-1) cells. HFL-1 (CCL-153) cells were grown in F-12K medium (ATCC, Rockville, MD) containing 10% fetal bovine serum (Gibco BRL, Grand Island, NY) and 1% penicillin-streptomycin (BD Bio, San Jose, CA). […] Eotaxin levels were determined by using ELISA (R&D Systems) according to the directions of the manufacturer.

Raw 264.7 cells = assay: Raw 264.7 cytotoxicity (MTT assay); type: cell-based, murine; details: luteolin concentrations tested
Description: (§2) Cell viability of U266 was measured by trypan blue exclusion (Yang, Patil, et al., 2013). Cell suspension (10 uL) was mixed with trypan blue dye (10 uL), and viable cells and total cells counted with a hemocytometer. The cell viability was calculated using the equation: cell viability=(total number of viable cells)/(total number of cells). The viability of Raw 264.7 was evaluated using the MTT assay carried out as previously described (Liu, C. et al., 2015, Phytother Res, 29(6), 925-932). Cells were seeded into a 96-well plate at 2×10^4 cells/well, then different concentrations of SZT-I or active compounds were added to the plate. After 24 h, 50 μL MTT (2.0 mg/mL) was added to wells and the plate was incubated for a further 3 h. The supernatant was discarded, and the generated formazan was dissolved in dimethyl sulfoxide (DMSO) (200 μL). The absorbance of wells was detected at 590 nm.

IgE = IgE production by U266 myeloma cells (ELISA); type: cell-based, Human
Description: as §1

U266 cells = assay: U266 cell viability (trypan blue exclusion); type: cell-based, Human; details: at the concentrations reducing IgE
Description: as §2

TNF-α [3] = assay: RT-PCR mRNA expression of hub target TNF-α after LPS; type: cell-based, murine; details: after LPS stimulation
Description: (§3) Expressions of targets were measured by RT-PCR. After treatment, total RNA was collected from the esophagus. Reverse transcription was conducted to obtain the cDNA. The RT-PCR amplification was performed using SYBRTM Green Master Mix with primers. The primer sequences were listed as follows: m-TNF-α: F-[…] (SEQ ID NO: 3); R-[…] (SEQ ID NO: 4). m-Bcl2: F-[…] (SEQ ID NO: 5); R-[…] (SEQ ID NO: 6). m-IL1B: F-[…] (SEQ ID NO: 7); R-[…] TGTGTG (SEQ ID NO: 8). m-PPARG: F-[…] (SEQ ID NO: 9); R-[…] (SEQ ID NO: 10).

IL1B = assay: RT-PCR mRNA expression of hub target IL1B after LPS; type: cell-based, murine; details: after LPS stimulation
Description: as §3

Bcl2 = assay: RT-PCR mRNA expression of hub target Bcl2 after LPS; type: cell-based, murine; details: Raw cells
Description: as §3

PPARG = assay: RT-PCR mRNA expression of hub target PPARG after LPS; type: cell-based, murine; details: inhibited by LPS
Description: as §3

| Compound | O.B. (oral bioavailability) ([1]; TCMSP database, Table 1) | other results |
| --- | --- | --- |
| COc1cc2oc3c4c(O)cc(O)cc4oc(=O)c3c2cc1OC [1,3-dihydroxy-8,9-dimethoxy-6-benzofurano[3,2-c]chromenone] | 62.9 |  |
| COc1cc(O)cc2c1[C@@H]1Oc3c(ccc(O)c3CC=C(C)C)[C@@H]1CO2 [1-Methoxyphaseol-lidin] | 69.98 |  |
| CC(C)=CCc1c(O)cc(O)c2c(=O)c(-c3ccc(O)c(O)c3)coc12 [3-(3,4-dihydroxyphenyl)-5,7-dihydroxy-8-(3-methylbut-2-enyl)chromone] | 66.37 |  |
| CCCCC/C=C/C/C=C/CCCCCCCCCC(=O)O [11,14-eicosadienoic acid] | 39.99 |  |
| O=C1C[C@H](c2ccc(O)cc2)Oc2cc(O)ccc21 [(2R)-7-hydroxy-2-(4-hydroxyphenyl) chroman-4-one] | 71.12 |  |
| C=C(C)[C@@H]1CC[C@]2(C(=O)O)CC[C@]3(C)[C@H](CC[C@@H]4[C@@]5(C)CC[C@H](O)C(C)(C)[C@@H]5CC[C@]43C)[C@@H]12 [Betulinic acid] | 55.38 |  |
| COc1cc(-c2cc(=O)c3c(O)cc(O)cc3o2)ccc1O [Chryseriol] | 35.85 |  |
| Oc1cc(O)c2c(c1)O[C@H](c1ccc(O)c(O)c1)[C@@H](O)C2 [Cianidanol] | 36.91 |  |
| CC/C=C/C/C=C/C/C=C/CCCCCCCC(=O)OCC [Ethyl linolenate] | 46.1 |  |
| CCCCCCCC/C=C\CCCCCCCC(=O)OCC [Ethyl oleate] | 32.4 |  |
| COc1ccc(-c2coc3cc(O)ccc3c2=O)cc1 [Formononetin] | 69.67 |  |
| CC1(C)C=Cc2c(ccc3c2OC[C@@H](c2ccc(O)cc2O)C3)O1 [Glabridin] | 53.25 |  |
| CC1(C)C=Cc2c(ccc(-c3coc4cc(O)ccc4c3=O)c2O)O1 [Glabrone] | 52.51 |  |
| COc1c(CC=C(C)C)c(O)cc2oc(=O)c3c4ccc(O)cc4oc3c12 [Glycyrol] | 90.78 |  |
| COc1ccc(C(=O)/C=C/c2ccc(O)cc2OC)cc1 [Glypallichalcone] | 61.6 |  |
| O=C1/C(=C2\Nc3ccccc3C2=O)Nc2ccccc21 [Indigo] | 38.2 |  |
| O=c1c(O)c(-c2ccc(O)cc2)oc2cc(O)cc(O)c12 [Kaempferol] | 41.88 |  |
| CC1(C)C=Cc2c(ccc3cc(-c4ccc(O)cc4O)c(=O)oc23)O1 [Kanzonols W] | 50.48 |  |

| Compound | O.B. (oral bioavailability) ([1]; TCMSP database, Table 1) | other results |
| --- | --- | --- |
| COc1c(/C=C/C(=O)c2ccc(O)cc2)ccc(O)c1O [Licochalcone B] | 76.76 |  |
| CC(C)=CCc1c(O)cc(O)c2c(=O)c(-c3ccc(O)cc3)coc12 [Lupiwighteone] | 51.64 |  |
| O=c1cc(-c2ccc(O)c(O)c2)oc2cc(O)cc(O)c12 [Luteolin] |  | IC50 (TNF-α [2]; Mus musculus, RAW264.7, Raw 264.7 cells, LPS 0.5 μg/mL, 24 h): 5.61 mg/L (≈ 19.6 µM); production of TNF-α compared with quercetin and kaempferol (TNF-α [2]; Raw 264.7 cells stimulated by LPS, 20 μg/mL): significantly inhibited; cell toxicity on Raw 264.7 (Raw 264.7 cells): no significant cell toxicity; production of IgE (IgE; 10 μg/mL): strongly diminished; IC50 (IgE; Homo sapiens, U-266, 144 h, 6 days): ~4.81 mg/L (≈ 16.8 µM); cytotoxicity on U266 (U266 cells): without cytotoxicity; mRNA expression of TNF-α (TNF-α [3]): reversed; mRNA expression of IL1B (IL1B): reversed; mRNA expression of Bcl2 (Bcl2): increased the expression of Bcl2 significantly; mRNA expression of PPARG (PPARG): upregulated; OB (oral bioavailability) ([1]; TCMSP database): 36.16% |
| CCCCC/C=C\C/C=C\CCCCCCCC(=O)OCC [Mandenol] | 42 |  |
| C=C(CC[C@@H](C(=O)O)[C@H]1[C@H](O)C[C@@]2(C)C3=C(CC[C@]12C)[C@@]1(C)CC[C@H](OC(C)=O)C(C)(C)[C@@H]1CC3)C(C)C [Pachymic acid] | 33.63 |  |
| O=c1c(O)c(-c2ccc(O)c(O)c2)oc2cc(O)cc(O)c12 [Quercetin] | 46.43 |  |
| CC(C)=CC[C@H](O)C1=CC(=O)c2c(O)ccc(O)c2C1=O [Shikonin] | 64.79 |  |
| CCC(/C=C/[C@H](C)[C@@H]1CC[C@@H]2[C@@H]3CC=C4C[C@@H](O)CC[C@]4(C)[C@@H]3CC[C@@]21C)C(C)C (stereo partly shown) [ZINC03978781] | 43.83 |  |
| CN1CCc2cc3c(cc2[C@H]1[C@H]1OC(=O)c2c1ccc1c2OCO1)OCO3 [bicuculline] | 69.67 |  |
| CC(C)=CCc1c(O)cc2c(c1O)C=C(c1ccc(O)cc1O)CO2 [dehydroglyasperins C] | 53.82 |  |
| O=C1C[C@@H](c2ccc(O[C@@H]3O[C@H](CO)[C@@H](O)[C@H](O)[C@H]3O)cc2)Oc2cc(O)ccc21 [liquiritin] | 65.69 |  |
| C[C@@]12C[C@@]3(O)O[C@H](O1)[C@@]1(COC(=O)c4ccccc4)[C@@H]3C[C@]12O[C@@H]1O[C@H](CO)[C@H](O)[C@H](O)[C@@H]1O [paeoniflorin_qt] | 68.18 |  |
| COc1c(O)cc(O)c2c(=O)cc(-c3ccccc3)oc12 [wogonin] | 30.68 |  |
| CC1=C(/C=C/C(C)=C/C=C/C(C)=C/C=C/C=C(C)/C=C/C=C(C)/C=C/C2=C(C)CCCC2(C)C)C(C)(C)CCC1 [β-carotene] | 37.18 |  |
| Sitosterol | 36.91 | OB (oral bioavailability) ([1]; TCMSP database): 36.91% |
| Stigmasterol | 43.83 | OB (oral bioavailability) ([1]; TCMSP database): 43.83% |
| β-amyrin acetate |  | O.B. (oral bioavailability) ([1]; po): 42.06 |
| β-sitosterol | 36.91 | OB (oral bioavailability) ([1]; TCMSP database): 36.91% |
